Test results: ChEMBL document CHEMBL3885881, “DrugMatrix”

Organism: Rattus norvegicus
Assay: DrugMatrix - Regimen: Daily Repeat
Format: toxicity, organism-based, Sprague-Dawley
Design: regimen Daily Repeat, gender Male, age 6-8 weeks
Details: in vivo, po, 210 mg/kg, route oral GAVAGE, dose level High, vehicle 100 % WATER; for BASOPHIL / EOSINOPHIL / ERYTHROCYTE COUNT / HEMATOCRIT / HEMOGLOBIN / LEUKOCYTE COUNT / LYMPHOCYTE / MEAN CORPUSCULAR HEMOGLOBIN / MEAN CORPUSCULAR HEMOGLOBIN CONCENTRATION / MEAN CORPUSCULAR VOLUME / MONOCYTE / NEUTROPHIL / PLATELET COUNT: tissue Blood; for ALANINE AMINOTRANSFERASE / ALBUMIN / ALKALINE PHOSPHATASE / ASPARTATE AMINOTRANSFERASE / BLOOD UREA NITROGEN / CARBON DIOXIDE / CHLORIDE / CHOLESTEROL / CREATINE PHOSPHOKINASE / CREATININE / GLUCOSE / LACTATE DEHYDROGENASE / LIPASE / PHOSPHORUS / POTASSIUM / SODIUM / TOTAL BILIRUBIN / TOTAL PROTEIN / URIC ACID: tissue Plasma

Structure (SMILES): OCC1CO1 (stereo unspecified) [GLYCIDOL]
- BASOPHIL (96 h, time 4 day): 0.37%
- EOSINOPHIL (96 h, time 4 day): 0.43%
- ERYTHROCYTE COUNT (96 h, time 4 day): 6.84 x10E6/uL
- HEMATOCRIT (96 h, time 4 day): 44.53%
- HEMOGLOBIN (96 h, time 4 day): 13.97 G/DL
- LEUKOCYTE COUNT (96 h, time 4 day): 11.04 x10E3/uL
- LYMPHOCYTE (96 h, time 4 day): 82.73%
- MEAN CORPUSCULAR HEMOGLOBIN (96 h, time 4 day): 20.43 pg
- MEAN CORPUSCULAR HEMOGLOBIN CONCENTRATION (96 h, time 4 day): 31.4 G/DL
- MEAN CORPUSCULAR VOLUME (96 h, time 4 day): 65.2 fL
- MONOCYTE (96 h, time 4 day): 2.77%
- NEUTROPHIL (96 h, time 4 day): 12.93%
- PLATELET COUNT (96 h, time 4 day): 1402.67 x10E3/uL
- ALANINE AMINOTRANSFERASE (96 h, time 4 day): 41.67 u/L
- ALBUMIN (96 h, time 4 day): 3.9 G/DL
- ALKALINE PHOSPHATASE (96 h, time 4 day): 368 u/L
- ASPARTATE AMINOTRANSFERASE (96 h, time 4 day): 81.33 u/L
- BLOOD UREA NITROGEN (96 h, time 4 day): 15.33 mg/dL
- CARBON DIOXIDE (96 h, time 4 day): 26 mmol/L
- CHLORIDE (96 h, time 4 day): 105.33 MEQ/L
- CHOLESTEROL (96 h, time 4 day): 107.33 mg/dL
- CREATINE PHOSPHOKINASE (96 h, time 4 day): 232 u/L
- CREATININE (96 h, time 4 day): 0.4 mg/dL
- GLUCOSE (96 h, time 4 day): 184 mg/dL
- LACTATE DEHYDROGENASE (96 h, time 4 day): 181 u/L
- LIPASE (96 h, time 4 day): 21 u/L
- PHOSPHORUS (96 h, time 4 day): 10.67 mg/dL
- POTASSIUM (96 h, time 4 day): 6.63 MEQ/L
- SODIUM (96 h, time 4 day): 147.33 MEQ/L
- TOTAL BILIRUBIN (96 h, time 4 day): 0.37 mg/dL
- TOTAL PROTEIN (96 h, time 4 day): 6.6 G/DL
- URIC ACID (96 h, time 4 day): 1.53 mg/dL
- BASOPHIL ([…], time 6 day): 0.33%
- EOSINOPHIL ([…], time 6 day): 0.33%
- ERYTHROCYTE COUNT ([…], time 6 day): 6.72 x10E6/uL
- HEMATOCRIT ([…], time 6 day): 43.03%
- HEMOGLOBIN ([…], time 6 day): 13.67 G/DL
- LEUKOCYTE COUNT ([…], time 6 day): 11.41 x10E3/uL
- LYMPHOCYTE ([…], time 6 day): 88.93%
- MEAN CORPUSCULAR HEMOGLOBIN ([…], time 6 day): 20.37 pg
- MEAN CORPUSCULAR HEMOGLOBIN CONCENTRATION ([…], time 6 day): 31.77 G/DL
- MEAN CORPUSCULAR VOLUME ([…], time 6 day): 64.1 fL
- MONOCYTE ([…], time 6 day): 2.73%
- NEUTROPHIL ([…], time 6 day): 6.93%
- PLATELET COUNT ([…], time 6 day): 1416.33 x10E3/uL
- BASOPHIL ([…], time 14 day): 0.43%
- EOSINOPHIL ([…], time 14 day): 1.53%
- ERYTHROCYTE COUNT ([…], time 14 day): 6.88 x10E6/uL
- HEMATOCRIT ([…], time 14 day): 45.62%
- HEMOGLOBIN ([…], time 14 day): 13.7 G/DL
- LEUKOCYTE COUNT ([…], time 14 day): 12.42 x10E3/uL
- LYMPHOCYTE ([…], time 14 day): 88.5%
- MEAN CORPUSCULAR HEMOGLOBIN ([…], time 14 day): 19.93 pg
- MEAN CORPUSCULAR HEMOGLOBIN CONCENTRATION ([…], time 14 day): 30.02 G/DL
- MEAN CORPUSCULAR VOLUME ([…], time 14 day): 66.33 fL
- MONOCYTE ([…], time 14 day): 1.9%
- NEUTROPHIL ([…], time 14 day): 6.83%
- PLATELET COUNT ([…], time 14 day): 1312.75 x10E3/uL
- ALANINE AMINOTRANSFERASE ([…], time 6 day): 34 u/L
- ALBUMIN ([…], time 6 day): 3.93 G/DL
- ALKALINE PHOSPHATASE ([…], time 6 day): 398 u/L
- ASPARTATE AMINOTRANSFERASE ([…], time 6 day): 76.33 u/L
- BLOOD UREA NITROGEN ([…], time 6 day): 15.67 mg/dL
- CARBON DIOXIDE ([…], time 6 day): 24.33 mmol/L
- CHLORIDE ([…], time 6 day): 110 MEQ/L
- CHOLESTEROL ([…], time 6 day): 95.33 mg/dL
- CREATINE PHOSPHOKINASE ([…], time 6 day): 145 u/L
- CREATININE ([…], time 6 day): 0.3 mg/dL
- GLUCOSE ([…], time 6 day): 175.33 mg/dL
- LACTATE DEHYDROGENASE ([…], time 6 day): 95.33 u/L
- LIPASE ([…], time 6 day): 6 u/L
- PHOSPHORUS ([…], time 6 day): 11.3 mg/dL
- POTASSIUM ([…], time 6 day): 6.9 MEQ/L
- SODIUM ([…], time 6 day): 151.67 MEQ/L
- TOTAL BILIRUBIN ([…], time 6 day): 0.37 mg/dL
- TOTAL PROTEIN ([…], time 6 day): 6.67 G/DL
- URIC ACID ([…], time 6 day): 1.63 mg/dL
- ALANINE AMINOTRANSFERASE ([…], time 14 day): 34 u/L
- ALBUMIN ([…], time 14 day): 4.45 G/DL
- ALKALINE PHOSPHATASE ([…], time 14 day): 332.5 u/L
- ASPARTATE AMINOTRANSFERASE ([…], time 14 day): 55.5 u/L
- BLOOD UREA NITROGEN ([…], time 14 day): 17 mg/dL
- CARBON DIOXIDE ([…], time 14 day): 27 mmol/L
- CHLORIDE ([…], time 14 day): 105 MEQ/L
- CHOLESTEROL ([…], time 14 day): 100.75 mg/dL
- CREATINE PHOSPHOKINASE ([…], time 14 day): 116.5 u/L
- CREATININE ([…], time 14 day): 0.32 mg/dL
- GLUCOSE ([…], time 14 day): 136.5 mg/dL
- LACTATE DEHYDROGENASE ([…], time 14 day): 63.5 u/L
- LIPASE ([…], time 14 day): 9.75 u/L
- PHOSPHORUS ([…], time 14 day): 12.12 mg/dL
- POTASSIUM ([…], time 14 day): 6.47 MEQ/L
- SODIUM ([…], time 14 day): 148.25 MEQ/L
- TOTAL BILIRUBIN ([…], time 14 day): 0.35 mg/dL
- TOTAL PROTEIN ([…], time 14 day): 7.2 G/DL
- URIC ACID ([…], time 14 day): 1.62 mg/dL
